Where a name gives a salt, the structure may show the parent alone.

One test deals with T1, Rat brain protein farnesyltransferase (Rattus norvegicus, UniProt Q02293+Q04631).
T1 construct: The enzyme is purified according to Reiss, Y., et al., Cell, 62: 81-88 (1990), utilizing steps one through three; from tissue; host or cells: rat brain
The experiment in a line: In vitro inhibition of protein farnesyltransferase, Amersham scintillation proximity assay with biotin-K Ras B fragment. The format is biochemical. To be noted: Inhibition of farnesyltransferase; compound at 1 × 10^−5 M (Table 1).
Consider `CC(C)C[C@H](NC(=O)c1ccc(NCc2c[nH]cn2)cc1-c1ccccc1)C(=O)O` [Example 387, 4-[N-(1H-Imidazol-4-yl)methylamino-2-phenylbenzoyl]leucine], for which the inhibition (commonly the relative decrease from the control value, in per cent) at 10 µM was greater than 50%.
On the same count and under the same terms, with `CC(C)C[C@H](NC(=O)c1ccc(NCc2cccnc2)cc1-c1ccccc1)C(=O)O` [Example 390, 5-[N-(3-Pyridinyl)methylamino-2-phenylbenzoyl]leucine] the figure was greater than 50%.

Still in this test, the particulars now being: Inhibition of farnesyltransferase; compound at 1 × 10^−6 M (Table 2).
As for “N-[4-(3-Imidazol-1-ylprolpylaminosulfonyl)-2-phenylbenzoyl]methionine Lithium Salt [Example 777]”, the % inhibition (usually the drop in the measured response relative to a control, in per cent) at 1 × 10^−6 M amounted to 83%.
On to “[4-(3-Pyridyloxymethyl)-2-(2-ethylphenyl)benzoyl]methionine Methyl Ester [Example 306]”, for which the “% inhibition at 1 × 10^−6 M” value was 99%.

The test is the same for the next values; noted with them: Inhibition of farnesyltransferase; compound at 1 × 10^−6 M (Table 2); read-out: % inhibition at 1 × 10^−6 M.
Turning to `CSCC[C@H](NC(=O)c1ccc(NC(=O)c2c[nH]cn2)cc1-c1ccccc1)C(=O)O` [Example 168, [4-(1H-Imidazol-4-ylcarbonyl)amino-2-phenylbenzoyl]methionine Hydrochloride], the inhibition at 1 µM amounted to 92%.
On the same count and under the same terms, the same measure for `COC(=O)[C@H](CCSC)NC(=O)c1ccc(NC(=O)c2cccnc2)cc1-c1ccccc1C` [Example 300, [4-(3-Pyridylcarbonylamino)-2-(2-methylphenyl)benzoyl]methionine Methyl Ester]: 22%; for `CSCC[C@H](NC(=O)c1ccc(CCc2c[nH]cn2)cc1-c1ccccc1)C(=O)O` [Example 329, {4-[2-(1H-Imidazol-4-yl)ethyl]-2-phenylbenzoyl}methionine]: 98%; for `COc1ccccc1-c1cc(COc2cccnc2)ccc1C(=O)N[C@@H](CCSC)C(=O)O` [Example 207, [4-(3-Pyridyloxymethyl)-2-(2-methoxyphenyl)benzoyl]methionine]: 98%.
On the same count and under the same terms, the same measure for `COCC[C@H](NC(=O)c1ccc(COc2cccnc2)cc1-c1ccccc1)C(=O)O` [Example 245]: 50%; for `CSCC[C@H](NC(=O)c1ccc(CNc2cccnc2)cc1-c1ccccc1)C(=O)O` [Example 227, [4-(Pyrid-3-ylaminomethyl)-2-phenylbenzoyl]methionine]: 94%; for `Cc1ccccc1-c1cc(COc2cccnc2)ccc1C(=O)N[C@@H](CCS(C)(=O)=O)C(=O)O` [Example 311, N-[4-(3-Pyridyloxymethyl)-2-(2-methylphenyl)benzoyl]-2-amino-4-(methylsulfonyl)butanoic Acid]: 97%.
For the compound `CSCC[C@H](NC(=O)c1ccc(NCc2cccnc2)cc1-c1ccccc1)C(N)=O` [Example 196, [4-(3-Pyridylmethylamino)-2-phenylbenzoyl]methionineamide], the inhibition at 1 µM is 43%.
Same read-out and setting: with `CSCC[C@H](NC(=O)c1ccc(C=Cc2cccnc2)cc1-c1ccccc1C)C(=O)O` [Example 276, {4-[2-(Pyrid-3-yl)ethenyl]-2-(2-methylphenyl)benzoyl}methionine Sodium Salt] the figure was 98%; with `CSCC[C@@H](CC(=O)O)NC(=O)c1ccc(COc2cccnc2)cc1-c1ccccc1` [Example 248], 79%; with `CCc1cc(C(=O)N[C@@H](CCSC)C(=O)O)c(-c2ccccc2C)cc1COc1cccnc1` [Example 918, N-[5-Ethyl-4-(pyrid-3-yloxymethyl)-2-(2-methylphenyl)benzoyl]methionine], 97%.
The same measure, in the same setting: with `CSCC[C@H](NC(=O)c1ccc(COc2cccnc2)cc1-c1ccccc1)C(=O)NO` [Example 249, [4-(3-Pyridyloxymethyl)-2-phenylbenzoyl]methionine Hydroxamic Acid] the figure was 77%; with `CSCC[C@H](NC(=O)c1ccc(NCc2cccnc2)cc1-c1ccccc1)C(=O)O` [Example 192, [4-(3-Pyridylmethylamino)-2-phenylbenzoyl]methionine], 95%; with `CCc1nc(NC(=O)c2ccc(COc3cccnc3)cc2-c2ccccc2)sc1C(=O)O` [Example 228], 39%.
Still for that read-out and setting: with `CSCC[C@H](NC(=O)c1ccc(CS(=O)(=O)c2cccnc2)cc1-c1ccccc1)C(=O)O` [Example 233, [4-(3-Pyridylsulfonylmethyl)-2-phenylbenzoyl]methionine] the figure was 65%; with `CSCC[C@H](NC(=O)c1ccc(CSCc2c[nH]cn2)cc1-c1ccccc1)C(=O)O` [Example 242, [4-(1H-Imidazol-4-ylmethylthiomethyl)-2-phenylbenzoyl]methionine], 99%.
`CSCC[C@H](NC(=O)c1ccc(COc2cccnc2)cc1-c1ccccc1C)C(=O)O` [Example 204, [4-(3-Pyridyloxymethyl)-2-(2-methylphenyl)benzoyl]methionine]: the inhibition at 1 µM turned out to be 98%.
The same measure, in the same setting: the same measure for `CSCCCNC(=O)c1ccc(CN(Cc2ccccc2)c2cccnc2)cc1-c1ccccc1C` [Example 926, 3-Methylthiopropyl N-4-(N-Pyrid-3-yl-N-benzylaminomethyl)-2-(2-methylphenyl)benzamide]: 69%; for `CS(=O)(=O)CC[C@H](NC(=O)c1ccc(C(O)C(O)c2cccnc2)cc1-c1ccccc1)C(=O)O` (mixture of isomers) [Example 221, N-{4-[2-(Pyrid-3-yl)-1,2-dihydroxyethyl]-2-phenylbenzoyl]-2-amino-4-(methylsulfonyl)butanoic Acid]: 55%; for `CSCC[C@H](NC(=O)c1ccc(CCc2cccnc2)cc1-c1ccccc1)C(=O)O` [Example 213, {4-[2-(Pyrid-3-yl)ethyl]-2-phenylbenzoyl}methionine Sodium Salt]: 98%.

Still in this test, the particulars now being: Inhibition of farnesyltransferase; compound at 1 × 10^−7 M (Table 3); read-out: % inhibition at 1 × 10^−7 M.
`CSCC[C@H](NC(=O)c1ccc(/C=C/c2cnccc2C(O)C2CCCCC2)cc1-c1ccccc1C)C(=O)O` (stereo partly drawn) [Example 486, N-[4-(2-(4-(1-Cyclohexyl)hydroxmethyl)pyrid-3-ylethen-1-yl)-2-(2-methylphenyl)benzoyl]methionine Lithium Salt]: the inhibition at 0.1 µM was 97%.
On the same count and under the same terms, the same measure for `CSCC[C@H](NC(=O)c1ccc(/C=C/c2cnccc2C(O)c2ccccc2)cc1-c1ccccc1C)C(=O)O` (stereo partly drawn) [Example 484, N-[4-(2-(4-α-Hydroxybenzyl)pyrid-3-ylethen-1-yl)-2-(2-methylphenyl)benzoyl]methionine Lithium Salt]: 97%; for `CSCC[C@H](NC(=O)c1ccc(CCc2cnccc2C(O)c2ccccc2)cc1-c1ccccc1C)C(=O)O` (stereo partly drawn) [Example 485, N-[4-(2-(4-α-Hydroxybenzyl)pyrid-3-ylethyl)-2-(2-methylphenyl)benzoyl]methionine Lithium Salt]: 96%.

Staying with this test, now noted: Inhibition of farnesyltransferase; compound at 1 × 10^−8 M (Table 4); read-out: % inhibition at 1 × 10^−8 M.
Consider `CSCC[C@H](NC(=O)c1ccc(OCCn2ccnc2)cc1-c1ccccc1)C(=O)O` [Example 958, N-[4-(2-Imidazol-1-ylethoxy)-2-phenylbenzoyl]methionine], for which the inhibition at 0.01 µM was greater than 50%.
In the case of `CSCC[C@H](NC(=O)c1ccc(COc2cccnc2)cc1-c1ccccc1)C(=O)NS(=O)(=O)N1CCSCC1` [Example 603, Thiomorpholinesulfonyl N-2-[4-(Pyrid-3-yloxymethyl)-2-phenylbenzoyl]amino-4-methylthiobutanamide], the inhibition at 0.01 µM is 94%.
For `CSCC[C@H](NC(=O)c1ccc(NCc2c[nH]cn2)cc1-c1ccccc1C)C(=O)O` [Example 384, 4-[N-(1-H-Imidazole-4-yl)methylamino-2-(2-methylphenylbenzoyl)]methionine], the inhibition at 0.01 µM stood at 91%.

The test is the same for the next values; noted with them: read-out: % inhibition at 0.01 μM.
`CSCC[C@H](NC(=O)c1ccc(/C=C(/C(=O)OC(C)(C)C)c2cccnc2)cc1-c1ccccc1C)C(=O)O` [Example 1077, N-[4-(E-2-t-Butoxycarbonyl-2-pyrid-3-ylethenyl)-2-(2-methylphenyl)benzoyl]methionine, Lithium Salt]: the inhibition at 0.01 µM was 93%.

The same test, now with this note: read-out: % inhibition at 0.1 μM.
`CSCC[C@H](NC(=O)c1ccc(/C=C(\C(=O)OC(C)(C)C)c2cccnc2)cc1-c1ccccc1C)C(=O)O` [Example 1078, N-[4-(Z-2-t-Butoxycarbonyl-2-pyrid-3-ylethenyl)-2-(2-methylphenyl)benzoyl]methionine, Lithium Salt]: the inhibition at 0.1 µM was 86%.

Staying with this test, now noted: read-out: % inhibition at 1 × 10^−6 M.
With `CSCC[C@H](NC(=O)c1ccc(/C=C/c2cnccc2N(C)C)cc1-c1ccccc1)C(=O)O` [Example 214, {4-[2-(4-Dimethylaminopyrid-3-yl)ethenyl]-2-phenylbenzoyl}methionine Sodium Salt], the inhibition at 1 µM amounted to 97%.
Still for that read-out and setting: with `CSCC[C@H](NC(=O)c1ccc(/C=C/n2ccnc2)cc1-c1ccccc1)C(=O)O` [Example 217, {4-[2-(1-H-Imidazole-1-yl)ethenyl]-2-phenylbenzoyl}methionine Sodium Salt] the figure was 99%.
`CNCCc1cnc[nH]1` [Example 722]: the inhibition at 1 µM worked out at 96%.
Still for that read-out and setting: with `CSCC[C@H](NC(=O)c1ccc(/C=C/n2ccnc2)cc1-c1ccccc1C)C(=O)O` [Example 278, {4-[2-(1H-1-Imidazolyl)ethenyl]-2-(2-methylphenyl)benzoyl}methionine Sodium Salt] the figure was 99%.

The same test, now with this note: read-out: % inhibition at 1 × 10^−7 M.
With `CSCC[C@H](NC(=O)c1ccc(/C=C/c2cnc3ccccc3c2)cc1-c1ccccc1C)C(=O)O` (stereo in doubt) [Example 487, N-[4-(2-Quinolin-3-ylethen-1-yl)-2-(2-methylphenyl)benzoyl]methionine Lithium Salt], the inhibition at 0.1 µM turned out to be 81%.
With `CSCC[C@H](NC(=O)c1ccc(CCc2ccc(Oc3ccccc3)nc2)cc1-c1ccccc1C)C(=O)O` [Example 801, N-[4-(2-(6-Phenyloxypyrid-3-yl)ethyl)-2-(2-methylphenyl)benzoy]methionine Lithium Salt], the inhibition at 0.1 µM was determined as 87%.
As to `CSCC[C@H](NC(=O)c1ccc(COc2cccnc2)cc1-c1c(C)noc1C)C(=O)O` [Example 823], the inhibition at 0.1 µM turned out to be 75%.

Source of the values: patent US6693123B2 (University of Pittsburgh, priority 1995, dated 2004).
